The assay addresses T1, recombinant human PDE5 (Homo sapiens, UniProt O76074).
T1 construct: host or cells: Saccharomyces cerevisiae strain BJ2-54 (ATCC 74465)
The experiment in a line: PDE5 inhibition, cGMP-PDE one-step assay. Particulars: in vitro. Type of assay: biochemical.

Counter-ions that a name gives are not always drawn.

Broadly, the IC50 is the concentration that inhibits the measured activity by half. For `CN1CC(=O)N2[C@H](c3ccc4c(c3)OCO4)c3[nH]cnc3C[C@@H]2C1=O` (racemic) [Example 1, (+−, cis)-4-Benzo[1,3]dioxol-5-yl-7-methyl-3,4,6,7,8a,9-hexahydro-1,3,4a,7-tetraaza-cyclopenta[b]naphthalene-5,8-dione hydrochloride], the IC50 amounted to 3.24 µM. With `COc1cc2c(cc1OC)[C@@H](c1ccc3c(c1)OCO3)N1C(=O)CN(C)C(=O)[C@@H]1C2` [Example 10] the figure was 0.718 µM.

Values taken from patent publication US6960587B2, “Condensed pyrazindione derivatives as PDE inhibitors” (Lilly Icos LLC, priority 2000, dated 2005).
